Measured values from ChEMBL document CHEMBL4177597, “A series of novel indazole derivatives of Sirt 1 activator as osteogenic regulators” (Bioorg Med Chem Lett, 2017).
Calls of active or inactive are those of the source. The rule behind the calls is not given here.

Key:
[1] = target: T1, NAD-dependent protein deacetylase sirtuin-1 (Homo sapiens) (UniProt Q96EB6); test: Activation of SIRT1 (unknown origin) by mass spectrophotometric analysis
T1 sequence (whole entry): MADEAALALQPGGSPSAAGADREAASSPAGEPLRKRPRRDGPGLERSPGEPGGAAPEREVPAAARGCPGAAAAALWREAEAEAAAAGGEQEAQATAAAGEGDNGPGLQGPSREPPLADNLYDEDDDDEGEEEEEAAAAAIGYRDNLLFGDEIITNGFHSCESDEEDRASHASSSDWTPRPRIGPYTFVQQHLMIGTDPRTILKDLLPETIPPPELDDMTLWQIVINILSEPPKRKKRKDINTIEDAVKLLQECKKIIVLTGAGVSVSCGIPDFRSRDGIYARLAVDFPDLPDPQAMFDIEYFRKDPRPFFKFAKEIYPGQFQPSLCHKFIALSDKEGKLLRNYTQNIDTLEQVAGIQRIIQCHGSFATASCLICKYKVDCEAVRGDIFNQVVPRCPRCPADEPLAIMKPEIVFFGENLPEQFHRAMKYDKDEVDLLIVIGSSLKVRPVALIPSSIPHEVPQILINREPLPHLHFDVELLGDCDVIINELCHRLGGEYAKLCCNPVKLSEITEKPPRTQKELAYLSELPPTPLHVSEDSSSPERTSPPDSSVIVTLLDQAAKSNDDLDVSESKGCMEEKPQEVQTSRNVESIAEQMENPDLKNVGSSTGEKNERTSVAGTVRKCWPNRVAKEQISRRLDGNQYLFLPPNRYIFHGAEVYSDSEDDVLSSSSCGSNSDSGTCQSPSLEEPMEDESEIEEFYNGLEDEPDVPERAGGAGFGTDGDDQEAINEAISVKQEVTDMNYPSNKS

[2] = Octanol-water apparent partition coefficient, log D of the compound at pH 7.4 after 24 hrs by shake flask method; format: physicochemical
[3] = target: T1, NAD-dependent protein deacetylase sirtuin-1 (Homo sapiens); test: Activation of SIRT1 in human U2OS cells assessed as increase in ALP activity using p-NPP as substrate measured after 30 mins by colorimetric method; format: cell-based
[4] = target: T1, NAD-dependent protein deacetylase sirtuin-1 (Homo sapiens); test: Activation of SIRT1 in human U2OS cells assessed as increase in deacetylation of doxorubicin-induced acetylated p53 at 0.01 to 1 uM by Western blot analysis; format: cell-based

| EC150 [1] [µM] | Compound | other results |
| --- | --- | --- |
| 2.4 | CCS(=O)(=O)c1ccccc1CNc1ccc2c(c1)c(-c1ccc(C(=O)N[C@H]3CC[C@H](O)CC3)cc1)nn2C |  |
| 2.92 | CNC(=O)c1ccc(-c2nn(C)c3ccc(NCc4cc(F)ccc4S(C)(=O)=O)cc23)cc1 |  |
| 1.36 | Cn1nc(-c2ccc(C(=O)NCCc3ccn[nH]3)cc2)c2cc(NCc3cc(F)ccc3S(C)(=O)=O)ccc21 |  |
| 0.4 | Cc1cc(S(C)(=O)=O)c(CNc2ccc3c(c2)c(-c2ccc(C(=O)N[C@H]4CC[C@H](O)CC4)cc2)nn3C)cc1F | logD at 24 h [2]: 1.41 |
| 4.54 | CCCS(=O)(=O)c1ccccc1CNc1ccc2c(c1)c(-c1ccc(C(=O)N[C@H]3CC[C@H](O)CC3)cc1)nn2C |  |
| 7.23 | COCCS(=O)(=O)c1ccccc1CNc1ccc2c(c1)c(-c1ccc(C(=O)N[C@H]3CC[C@H](O)CC3)cc1)nn2C |  |
| 1.46 | Cn1nc(-c2ccc(C(=O)NCC3CCCO3)cc2)c2cc(NCc3cc(F)ccc3S(C)(=O)=O)ccc21 (configuration not stated) |  |

Continued, compound first:

| Compound | EC150 [1] [µM] | other results |
| --- | --- | --- |
| Cn1nc(-c2cc3ccccc3s2)c2cc(NCc3cc(F)ccc3S(C)(=O)=O)ccc21 | 1.52 |  |
| Cc1cc(CNc2ccc3c(c2)c(-c2ccc(C(=O)N[C@H]4CC[C@H](O)CC4)cc2)nn3C)c(S(C)(=O)=O)cc1F | > 20 |  |
| Cn1nc(-c2ccc(C(=O)N[C@H]3CC[C@H](O)CC3)cc2)c2cc(NCc3cc(F)ccc3S(C)(=O)=O)ccc21 | 0.95 |  |
| Cn1nc(-c2ccc(C(=O)N[C@H]3CC[C@H](O)CC3)cc2)c2cc(NCc3cc(F)c(F)cc3S(C)(=O)=O)ccc21 | 0.4 | logD at 24 h [2]: 1.37; EC30 [3]: 650 pM; Activity [4]: Active |
| Cn1nc(-c2cnc3ccccc3c2)c2cc(NCc3cc(F)ccc3S(C)(=O)=O)ccc21 | 1.49 |  |
| Cn1nc(-c2ccc3ccccc3c2)c2cc(NCc3cc(F)ccc3S(C)(=O)=O)ccc21 | 2.88 |  |
